From PubChem BioAssay AID743333 (Broad Institute, 2014)
Activity calls are given as the source filed them.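 How the source made its calls: active means signal falls with dose and an IC50 can be fitted at or below twice the top valid tested dose; inconclusive means flat fit showing 30 to 70% loss, or poor fit; inactive means activity in the rising direction, plus the rest.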

test system: A549 viability, CellTiter-Glo ATP luminescence, 72 h; experiment: A549 viability loss, ATP readout – cell-based, plate reader, dry powder, set 8, cytotoxicity control, dose response (AID 743333); conditions: not given

Compound	IC50
CCN(CC)c1ccc(S(=O)(=O)N(C)C)cc1C(=O)Nc1ncc(C)s1	> 30 µM (inactive)

test system: not listed separately; experiment: as above; conditions: A549 viability, CellTiter-Glo ATP luminescence, 72 h; at 15 µM (top of the series)

Compound	activity change, negative = cytotoxicity
Cc1ccc(NC(=O)c2cc(S(=O)(=O)N(C)C)ccc2N2CCCC2)cc1	-13.5% (inactive)
Cc1cnc(NC(=O)c2cc(S(=O)(=O)N3CCCCC3)ccc2N2CCCC2)s1	9.07% (inactive)
COc1ccc2sc(NC(=O)c3cc(S(=O)(=O)N(C)C)ccc3N3CCCC3)nc2c1	8.3% (inactive)
CN(C)S(=O)(=O)c1ccc(N2CCCC2)c(C(=O)Nc2nccs2)c1	1.36% (inactive)
Cc1cnc(NC(=O)c2cc(S(=O)(=O)N(C)C)ccc2C2CCCC2)s1	0.274% (inactive)
Cc1cnc(NC(=O)c2cc(S(=O)(=O)N3CCCC3)ccc2N2CCCC2)s1	0.402% (inactive)
CN(C)CCCN(Cc1cc2ccccc2[nH]c1=O)C(=O)NCc1ccccc1	-4.79% (inactive)
Cc1cnc(NC(=O)c2cc(S(=O)(=O)N(C)C)ccc2N2CCCC2)s1	-12% (inactive)
CN(C)S(=O)(=O)c1ccc(N2CCCC2)c(C(=O)Nc2nc3ccccc3s2)c1	-13.7% (inactive)
COc1ccc2nc(NC(=O)c3cc(S(=O)(=O)N(C)C)ccc3N3CCCC3)sc2c1	-4.45% (inactive)
Cc1cnc(NC(=O)c2cc(S(=O)(=O)N(C)C)ccc2N(C)C)s1	-6.64% (inactive)
CN(C)CCCN(Cc1cc2ccccc2[nH]c1=O)C(=O)Nc1ccccc1	2.4% (inactive)
Cc1cnc(NC(=O)c2cc(S(=O)(=O)N(C)C)ccc2N2CCC2)s1	-8.88% (inactive)
CN(C)S(=O)(=O)c1ccc(N2CCCC2)c(C(=O)Nc2ccccc2)c1	-5.56% (inactive)
Cc1cnc(NC(=O)c2cc(S(=O)(=O)N3CCOCC3)ccc2N2CCCC2)s1	-9.98% (inactive)
COc1cccc2sc(NC(=O)c3cc(S(=O)(=O)N(C)C)ccc3N3CCCC3)nc12	-2.59% (inactive)
CN(C)S(=O)(=O)c1ccc(N2CCCC2)c(C(=O)Nc2cccc(F)c2)c1	-8.14% (inactive)
Cc1csc(NC(=O)c2cc(S(=O)(=O)N(C)C)ccc2N2CCCC2)n1	-6.7% (inactive)
